Experimental data as given in paper PMC6508495, “Members of the abscisic acid co‐receptor PP2C protein family mediate salicylic acid–abscisic acid crosstalk” (Plant Direct, 2017).

Legend:
[1] = biological target: T1, ABI1 (Arabidopsis thaliana, UniProt P49597); assay: SPR, 3AESA immobilised on CM5 chip; type: binding; conditions: 3AESA amide-coupled to chip; 1 uM protein; competed by SA
T1 construct: ORF from Arabidopsis cDNA library in pET28a, His6-tagged, E. coli Rosetta 2 (DE3), Ni-NTA and gel filtration
T1 sequence (P49597 1-434): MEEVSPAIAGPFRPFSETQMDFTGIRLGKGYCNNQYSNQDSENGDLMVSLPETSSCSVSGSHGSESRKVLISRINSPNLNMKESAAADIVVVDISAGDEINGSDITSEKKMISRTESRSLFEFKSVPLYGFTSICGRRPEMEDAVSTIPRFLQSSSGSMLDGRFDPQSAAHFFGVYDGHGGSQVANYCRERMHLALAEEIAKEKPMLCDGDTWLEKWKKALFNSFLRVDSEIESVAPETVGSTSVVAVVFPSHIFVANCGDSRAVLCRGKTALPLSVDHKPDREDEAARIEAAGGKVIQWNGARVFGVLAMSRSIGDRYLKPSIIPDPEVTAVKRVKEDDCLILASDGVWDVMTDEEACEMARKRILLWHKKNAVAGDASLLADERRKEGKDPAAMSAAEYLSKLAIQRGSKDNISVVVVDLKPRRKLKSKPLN

[2] = biological target: T2, PP2C-D4 (Arabidopsis thaliana, UniProt Q94CL8); assay: SPR, 3AESA immobilised on CM5 chip; type: binding; conditions: 3AESA amide-coupled to chip; 1 uM protein; competed by SA
T2 construct: gene PP2C6; ORF from Arabidopsis cDNA library in pET42a (NdeI/XhoI), His6-tagged, E. coli Rosetta 2 (DE3), Ni-NTA and gel filtration
T2 sequence (Q94CL8 1-384): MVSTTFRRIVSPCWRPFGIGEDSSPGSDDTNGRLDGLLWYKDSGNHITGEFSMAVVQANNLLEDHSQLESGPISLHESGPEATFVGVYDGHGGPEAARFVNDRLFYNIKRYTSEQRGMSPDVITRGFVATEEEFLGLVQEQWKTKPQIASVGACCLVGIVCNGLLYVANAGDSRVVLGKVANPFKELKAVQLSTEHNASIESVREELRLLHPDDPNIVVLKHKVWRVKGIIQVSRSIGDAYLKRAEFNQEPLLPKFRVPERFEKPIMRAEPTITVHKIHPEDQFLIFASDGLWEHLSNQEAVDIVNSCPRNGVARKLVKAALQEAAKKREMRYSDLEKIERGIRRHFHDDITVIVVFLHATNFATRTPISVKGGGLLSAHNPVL

[3] = biological target: T3, ABI2 (Arabidopsis thaliana, UniProt O04719); assay: SPR, 3AESA immobilised on CM5 chip; type: binding; conditions: 3AESA amide-coupled to chip; 1 uM protein; competed by SA
T3 construct: ORF from Arabidopsis cDNA library in pET28a, His6-tagged, E. coli Rosetta 2 (DE3), Ni-NTA and gel filtration
T3 sequence (O04719 1-423): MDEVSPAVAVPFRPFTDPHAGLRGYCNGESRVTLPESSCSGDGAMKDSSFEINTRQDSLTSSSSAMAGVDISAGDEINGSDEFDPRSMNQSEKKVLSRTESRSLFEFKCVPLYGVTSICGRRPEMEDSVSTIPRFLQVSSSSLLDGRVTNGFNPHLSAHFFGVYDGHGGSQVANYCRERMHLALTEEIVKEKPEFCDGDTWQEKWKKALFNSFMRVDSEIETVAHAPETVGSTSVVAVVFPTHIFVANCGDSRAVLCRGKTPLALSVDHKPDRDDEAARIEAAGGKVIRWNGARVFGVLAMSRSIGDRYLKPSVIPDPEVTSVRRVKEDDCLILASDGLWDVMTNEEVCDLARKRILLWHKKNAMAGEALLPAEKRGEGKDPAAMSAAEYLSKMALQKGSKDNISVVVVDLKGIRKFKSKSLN

[4] = biological target: T3, ABI2; assay: photoaffinity crosslinking, anti-SA immunoblot; type: binding; conditions: 50 uM 4AzSA; 50 ng protein; photo-activated, covalent; competed by SA
[5] = biological target: T1, ABI1; assay: photoaffinity crosslinking, anti-SA immunoblot; type: binding; conditions: 50 uM 4AzSA; 50 ng protein; photo-activated, covalent; competed by SA
[6] = biological target: T4, PYL1 with ABI1 (Arabidopsis thaliana, UniProt Q8VZS8); assay: SPR of ABI1 binding to immobilised PYL1, enhanced by ABA; conditions: indirect: ABA-enhanced receptor-PP2C interaction; HBS-EP buffer
T4 construct: His6-SUMO-tagged PYL1 immobilised on CM5 chip; His6-ABI1 as analyte; both from E. coli; with Protein phosphatase 2C 56
T4 sequence (Q8VZS8 2-221): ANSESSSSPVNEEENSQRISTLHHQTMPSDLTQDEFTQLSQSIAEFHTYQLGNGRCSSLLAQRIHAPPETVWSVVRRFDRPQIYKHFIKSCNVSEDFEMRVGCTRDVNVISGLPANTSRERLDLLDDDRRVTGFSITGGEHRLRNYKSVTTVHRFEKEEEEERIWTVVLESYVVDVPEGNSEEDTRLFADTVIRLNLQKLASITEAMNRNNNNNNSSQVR
T4 sequence (P49597 1-434 partner): T1 sequence (P49597 1-434)

[7] = biological target: T5, PYR1 with ABI1 (Arabidopsis thaliana, UniProt O49686); assay: SPR of ABI1 binding to immobilised PYR1, enhanced by ABA; conditions: indirect: ABA-enhanced receptor-PP2C interaction; HBS-EP buffer
T5 construct: His-SUMO-tagged PYR1 immobilised on CM5 chip; His6-ABI1 as analyte; both from E. coli; with Protein phosphatase 2C 56
T5 sequence (O49686 1-191): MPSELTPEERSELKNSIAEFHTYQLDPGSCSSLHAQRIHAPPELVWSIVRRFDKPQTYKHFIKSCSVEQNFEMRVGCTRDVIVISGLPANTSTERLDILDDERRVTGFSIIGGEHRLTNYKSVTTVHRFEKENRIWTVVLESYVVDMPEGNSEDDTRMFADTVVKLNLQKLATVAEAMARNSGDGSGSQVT
T5 sequence (P49597 1-434 partner): T1 sequence (P49597 1-434)

[8] = biological target: T6, PYL2 with ABI1 (Arabidopsis thaliana, UniProt O80992); assay: SPR of ABI1 binding to immobilised PYL2, enhanced by ABA; conditions: indirect: ABA-enhanced receptor-PP2C interaction; HBS-EP buffer
T6 construct: His-SUMO-tagged PYL2 immobilised on CM5 chip; His6-ABI1 as analyte; both from E. coli; with Protein phosphatase 2C 56
T6 sequence (O80992 1-190): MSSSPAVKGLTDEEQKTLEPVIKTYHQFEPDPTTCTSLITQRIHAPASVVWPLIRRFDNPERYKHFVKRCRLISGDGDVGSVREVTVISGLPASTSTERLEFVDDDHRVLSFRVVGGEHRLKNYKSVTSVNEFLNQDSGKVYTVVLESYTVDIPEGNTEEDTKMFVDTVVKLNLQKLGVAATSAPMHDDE
T6 sequence (P49597 1-434 partner): T1 sequence (P49597 1-434)

[9] = biological target: T1, ABI1; assay: size-exclusion chromatography with [3H]SA; type: binding; conditions: 200 nM [3H]SA; 200 ng/ul protein; labelled compound
[10] = biological target: T3, ABI2; assay: size-exclusion chromatography with [3H]SA; type: binding; conditions: 200 nM [3H]SA; 200 ng/ul protein; labelled compound
[11] = biological target: T2, PP2C-D4; assay: size-exclusion chromatography with [3H]SA; type: binding; conditions: 200 nM [3H]SA; 200 ng/ul protein; labelled compound

## NCCc1cccc(C(=O)O)c1O [3AESA]
[1]
  SPR, 3AESA immobilised on CM5 chip: recombinant ABI1 and ABI2 bound the 3AESA‐immobilized sensor chip and crosslinked with 4AzSA
[2]
  SPR, 3AESA immobilised on CM5 chip: Binding to 3AESA was detected when purified PP2C‐D4 was passed over the sensor chip
[3]
  SPR, 3AESA immobilised on CM5 chip: recombinant ABI1 and ABI2 bound the 3AESA‐immobilized sensor chip and crosslinked with 4AzSA

## [N-]=[N+]=Nc1ccc(C(=O)O)c(O)c1 [4AzSA]
[4]
  photoaffinity crosslinking, anti-SA immunoblot: recombinant ABI1 and ABI2 bound the 3AESA‐immobilized sensor chip and crosslinked with 4AzSA
[5]
  photoaffinity crosslinking, anti-SA immunoblot: recombinant ABI1 and ABI2 bound the 3AESA‐immobilized sensor chip and crosslinked with 4AzSA

## CC1=CC(=O)CC(C)(C)[C@@]1(O)/C=C/C(C)=C\C(=O)O [ABA]
[6]
  SPR of ABI1 binding to immobilised PYL1, enhanced by ABA: this binding was enhanced several fold in the presence of ABA
[7]
  SPR of ABI1 binding to immobilised PYR1, enhanced by ABA: dose‐dependent binding to the PP2Cs, which was further enhanced in the presence of ABA
[8]
  SPR of ABI1 binding to immobilised PYL2, enhanced by ABA: dose‐dependent binding to the PP2Cs, which was further enhanced in the presence of ABA

## O=C(O)c1ccccc1O [SA]
[9]
  size-exclusion chromatography with [3H]SA: ABI1 exhibited relatively weak binding to [^3H]SA
[10]
  size-exclusion chromatography with [3H]SA: ABI2's binding to [^3H]SA was comparable to that of PP2C‐D4
[11]
  size-exclusion chromatography with [3H]SA: PP2C‐D4's ability to bind SA also was confirmed by size‐exclusion chromatography using [^3H]SA
